Measured values from patent US20170196859A1, “PHARMACEUTICAL COMPOSITION COMPRISING PYRAZINE CARBOXAMIDE COMPOUND AS ACTIVE INGREDIENT” (Astellas Pharma Inc., priority 2014, published 2017).

Key:
[1] = system: human acute T cell lymphoma cell line Jurkat 6.1E cells; test: Proliferation inhibition, Jurkat 6.1E cells (CellTiter-Glo); assay type: cell-based; settings: 96 h, 4 days culture
Experimental: Jurkat 6.1E is a cell line originated from human acute T cell lymphoma and the ITK expression has been confirmed (Mol. Pharmacol. 2012; 82:938-947). The human acute T cell lymphoma cell line Jurkat 6.1E cells (European Collection of Cell Cultures, 88042803) cultured in RPMI1640 medium (Sigma) containing 10% bovine serum were seeded into 96 well plates. On the same day, DMSO solutions of the test compound B at a final concentrations from 1 nM to 10 μM or only DMSO (DMSO group) were added thereto to culture the cells at 37° C. in 5% CO2 for 4 days. Thereafter, the cell number was measured using a cell counting reagent (CellTiter-Glo (registered trademark) Luminescent Cell Viability Assay (Promega)). The cell proliferation inhibition rate was calculated as the measured value in the DMSO group set as 0% inhibition and the measured value in the well only with the medium on which the cells have not been inoculated set 100% inhibition.

[2] = system: human anaplastic large cell lymphoma cell line SU-DHL-1 cells; test: Proliferation inhibition, SU-DHL-1 cells (CellTiter-Glo); assay type: cell-based; settings: SU-DHL-1, 96 h, 4 days culture
Experimental: SU-DHL-1 is a cell line originated from human anaplastic large cell lymphoma and the activation of JAK 3 has been confirmed (Leukemia. 2014; 28:941-944). The human anaplastic large cell lymphoma cell line SU-DHL-1 cells (American Type Culture Collection, CRL-2955) cultured in RPMI1640 medium (Sigma) containing 10% bovine serum were seeded into 96 well plates. On the same day, DMSO solutions of the test compound B at a final concentrations from 1 nM to 10 μM or only DMSO (DMSO group) was added thereto to culture the cells at 37° C. in 5% CO2 for 4 days. Thereafter, the cell number was measured using a cell counting reagent (CellTiter-Glo (registered trademark) Luminescent Cell Viability Assay (Promega)). The cell proliferation inhibition rate was calculated as the measured value in the DMSO group set as 0% inhibition and the measured value in the well only with the medium on which the cells have not been seeded set as 100% inhibition.

[3] = system: human histiocytic lymphoma cell line U-937 cells; test: Proliferation inhibition, U-937 cells (CellTiter-Glo); assay type: cell-based; settings: U-937, 72 h, 3 days culture
Experimental: U-937 is a cell line originated from human histiocytic lymphoma and the BTK expression has been confirmed (J. Immunol. 1994; 152(2):557-565). The human histiocytic lymphoma cell line U-937 cells (Sumitomo Dainippon Pharma Co., Ltd.) cultured in RPMI1640 medium (Sigma) containing 10% bovine serum were seeded into 96 well plates. On the same day, DMSO solutions of the test compound B at a final concentrations from 1 nM to 10 μM or only DMSO (DMSO group) were added thereto to culture the cells at 37° C. in 5% CO2 for 3 days. Thereafter, the cell number was measured using a cell counting reagent (CellTiter-Glo (registered trademark) Luminescent Cell Viability Assay (Promega)). The cell proliferation inhibition rate was calculated as the measured value in the DMSO group set as 0% inhibition and the measured value in the well only with the medium on which the cells have not been seeded set as 100% inhibition.

[4] = target: BTK kinase (Homo sapiens, UniProt Q06187); test: BTK kinase inhibitory activity (QSS Assist BTK_MSA kit); assay type: biochemical; settings: 30 min preincubation, ATP 1 mM, concentration as compound A free form
Sequence of BTK kinase (Q06187 whole entry): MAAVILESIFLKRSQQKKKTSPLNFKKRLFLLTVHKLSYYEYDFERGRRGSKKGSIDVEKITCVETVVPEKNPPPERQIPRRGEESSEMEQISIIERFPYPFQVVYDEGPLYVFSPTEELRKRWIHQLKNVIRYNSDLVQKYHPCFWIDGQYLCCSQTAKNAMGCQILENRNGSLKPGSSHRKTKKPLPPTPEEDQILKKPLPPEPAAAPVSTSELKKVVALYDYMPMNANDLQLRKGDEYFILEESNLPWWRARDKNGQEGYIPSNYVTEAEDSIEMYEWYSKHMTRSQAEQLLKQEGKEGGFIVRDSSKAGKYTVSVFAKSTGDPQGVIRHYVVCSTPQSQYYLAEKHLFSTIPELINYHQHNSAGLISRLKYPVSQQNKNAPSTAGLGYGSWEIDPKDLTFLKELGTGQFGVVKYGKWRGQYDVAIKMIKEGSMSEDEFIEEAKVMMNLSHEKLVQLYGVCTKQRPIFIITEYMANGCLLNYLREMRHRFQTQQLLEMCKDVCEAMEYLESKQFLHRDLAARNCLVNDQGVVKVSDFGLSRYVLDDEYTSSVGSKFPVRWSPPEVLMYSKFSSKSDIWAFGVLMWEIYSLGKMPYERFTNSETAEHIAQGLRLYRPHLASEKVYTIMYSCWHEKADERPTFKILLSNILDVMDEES
Experimental: The BTK kinase inhibitory activity was evaluated using QSS Assist BTK_MSA kit (Carna Bioscience).
The test compound B was dissolved in dimethyl sulfoxide (DMSO) to prepare a solution at a 100-fold concentration as compared to the final concentration. The solution was also 25-fold diluted with an appurtenant assay buffer to obtain a test compound B solution. In addition, BTK kinase appurtenant to the kit was used for the reaction.
5 μL of the test compound B solution at a 4-fold concentration, prepared using the aforementioned assay buffer, and 10 μL of a BTK kinase solution at a 2-fold concentration were mixed within a well of a 384 well plate, and left to undergo a reaction at room temperature for 30 minutes. Continuously, 5 μL of a substrate peptide/ATP/MgCl2 solution at a 4-fold concentration was added thereto to perform the reaction at room temperature for 1 hour. The substrate peptide was used at a final concentration of 1000 nM, ATP at a final concentration of 1 mM, and MgCl2 at a final concentration of 5 mM. Thereafter, 60 μL of an appurtenant termination buffer was added thereto to stop the reaction. The BTK kinase activity was calculated by quantifying a product conversion ratio obtained from the substrate peptide peak height and the product (phosphorylated substrate peptide) peak height with LabChip EZ Reader II (PerkinElmer). […]

[5] = system: human acute megakaryocytic leukemia cell line CMK cells; test: Proliferation inhibition, CMK cells (CellTiter-Glo); assay type: cell-based; settings: 96 h, 4 days culture
Experimental: CMK is a cell line originated from human acute megakaryocytic leukemia and the activation of JAK 3 has been confirmed (Cancer Cell. 2006; 10:65-75). The human acute megakaryocytic leukemia cell line CMK cells (DSMZ, ACC392) cultured in RPMI1640 medium (Sigma) containing 20% bovine serum and 2 mM of glutamine were inoculated into 96 well plates. On the same day, DMSO solutions of the test compound B at final concentrations from 1 nM to 10 μM or only DMSO (DMSO group) were added thereto to culture the cells at 37° C. in 5% CO2 for 4 days. Thereafter, the cell number was measured using a cell counting reagent (CellTiter-Glo (registered trademark) Luminescent Cell Viability Assay (Promega)). The cell proliferation inhibition rate was calculated as the measured value in the DMSO group set as 0% inhibition and the measured value in the well only with the medium on which the cells have not been seeded set as 100% inhibition.

[6] = system: human mantle cell lymphoma cell line Rec-1 cells; test: Proliferation inhibition, Rec-1 cells (CellTiter-Glo); assay type: cell-based; settings: Rec1, 72 h, 3 days culture
Experimental: Rec-1 is a cell line originated from human mantle cell lymphoma, a kind of B-cell malignant neoplasm, and the BTK expression and phosphorylation have been confirmed (Cell Oncol. 2011; 34:141-153). The human mantle cell lymphoma cell line Rec-1 cells (American Type Culture Collection, CRL-3004) cultured in RPMI1640 medium (Sigma) containing 10% bovine serum were seeded into 96 well plates. On the next day, DMSO solutions of the test compound B at final concentrations from 1 nM to 10 μM or only DMSO (DMSO group) were added thereto to culture the cells at 37° C. in 5% CO2 for 3 days. Thereafter, the cell number was measured using a cell counting reagent (CellTiter-Glo (registered trademark) Luminescent Cell Viability Assay (Promega)). The cell proliferation inhibition rate was calculated as the measured value in the DMSO group set as 0% inhibition and the measured value in the well only with the medium on which the cells have not been seeded set as 100% inhibition.

With `C=CC(=O)N1CC[C@@H](Oc2nc(Nc3ccc(N4CCC(N5CCN(C)CC5)CC4)cc3)c(C(N)=O)nc2CC)C1` [test compound B, 5-{[(3R)-1-acryloylpyrrolidin-3-yl]oxy}-6-ethyl-3-({4-[4-(4-methylpiperazin-1-yl)piperidin-1-yl]phenyl}amino)pyrazine-2-carboxamide monomethanesulfonate] the IC50 [1] was 940 nM, the IC50 [2] was 120 nM and the IC50 [3] was 63 nM. It also gave an IC50 [4] of 0.17 nM, an IC50 [5] of 110 nM and an IC50 [6] of 68 nM.
